Active and inactive are the calls of the source.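 How the source made its calls: active means compounds giving half or more protection of infected cells from virus-caused growth loss, again on retest; inactive means the rest.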
Tested on: CEM cells HIV-1 protection, formazan growth assay
Test: NCI AIDS Antiviral Assay
Details: for IC50: measured here: growth of uninfected CEM cells
In short: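 Human CEM cells, uninfected and HIV-1-infected, exposed to five drug concentrations; growth measured by soluble formazan assay and scored as percent protection from infection, with protecting compounds retested.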

O=C1/C(=C/c2ccc([N+](=O)[O-])cc2)CNC/C1=C\c1ccc([N+](=O)[O-])cc1
EC50: > 2 µM | IC50: 0.363 µM

O=c1[nH]c2ccccc2c(O)c1O
EC50: > 200 µM | IC50: > 200 µM

O=C(/C=C/c1ccc(-c2ccccc2)cc1)c1ccccc1
EC50: > 13.2 µM | IC50: > 13.2 µM

OCc1c(-c2cccc3ccccc23)sc(-c2cccc3ccccc23)c1CO
outcome: inactive

O=C1C2CCCCC2C(=O)N1n1c(Cc2ccc(Cl)cc2)n[nH]c1=O (stereo not given)
EC50: > 200 µM | IC50: > 200 µM

Cc1cccc(-c2nnc(-c3nn(-c4ccccc4)c4nc5ccccc5nc34)o2)c1
EC50: > 38.9 µM | IC50: 19.5 µM

Cc1c2cc(Cl)ccc2n2c(=O)c3ccccc3[nH]c(=O)c12
EC50: > 15.8 µM | IC50: > 15.8 µM

C#CCOC(=O)[C@@H](C)c1ccc2cc(OC)ccc2c1
EC50: > 200 µM | IC50: 47.9 µM

O=C1CC(CC(O)C(O)CO)CC(=O)N1 (stereo not given)
EC50: > 200 µM | IC50: > 200 µM

Cc1ccc(S(=O)OCc2c(C)c(C)c(COS(=O)c3ccc(C)cc3)c(C)c2C)cc1 (stereo not given)
outcome: inactive

CCN(CC)C(=O)CCn1cc(F)c(=O)[nH]c1=O
EC50: > 977 µM | IC50: > 977 µM

Cc1nc2ccccc2c(=O)n1-c1ccccc1Cl
EC50: > 182 µM | IC50: 148 µM

O=S1(=O)CC2C1C1(c3ccccc3)OC2(c2ccccc2)c2ccccc21 (stereo not given)
EC50: > 200 µM | IC50: 20 µM

CCOP(=O)(OCC)/C(C#N)=C/c1ccnc2ccccc12
EC50: > 200 µM | IC50: 11.2 µM

CCCC(O)(CCC)C1=NCCN1
EC50: > 200 µM | IC50: > 200 µM

NC(=O)NC(=NCc1ccccc1)NCc1ccccc1
EC50: > 776 µM | IC50: 107 µM

CCOC(=O)/C(=C/n1c(=S)[nH]c2ccc([N+](=O)[O-])cc21)C(=O)c1ccccc1
EC50: > 200 µM | IC50: 141 µM

S=c1sc2c(s1)SCCS2
EC50: > 200 µM | IC50: 155 µM

OCCNc1nc(Cl)nc(Cl)n1
EC50: > 200 µM | IC50: > 200 µM

O=C(O)c1ccc(C2C3C=CC(C3)C2[N+](=O)[O-])cc1 (stereo not given)
EC50: > 347 µM | IC50: > 347 µM

O=C(Cc1ccccc1)ONC(CCCCNC(=O)OCc1ccccc1)C(=O)Nc1ccc(Cc2ccc(NC(=O)C(CCCCNC(=O)OCc3ccccc3)NC(=O)OCc3ccccc3)cc2)cc1 (stereo not given)
EC50: > 100 µM | IC50: > 100 µM

Cc1sc2nc3n(c(=O)c2c1C)N=C(c1ccccc1)CS3
EC50: > 200 µM | IC50: > 200 µM

O=C(NCCO)c1ccc[c]([Sb](=[O])([OH])[OH])c1
EC50: 23.4 µM | IC50: 398 µM

O=C1CS(=O)(=O)C(c2cccc(Cl)c2)N1N1C(=O)CS(=O)(=O)C1c1cccc(Cl)c1 (stereo not given)
EC50: > 200 µM | IC50: > 200 µM

O=C1NC(=S)S/C1=C/c1ccco1
EC50: > 123 µM | IC50: 72.4 µM

CCCCCCCCCCCCCCCC[N+](C)(C)Cc1ccccc1
EC50: > 200 µM | IC50: 3.31 µM

CN(C)c1ccc(/C=c2\[nH]c(=O)/c(=C\c3ccc(N(C)C)cc3)[nH]c2=O)cc1
EC50: > 50.1 µM | IC50: > 50.1 µM

CSC(N)=Nc1cccc2ccccc12
EC50: > 200 µM | IC50: > 200 µM

C=C(C)CCC1CCCCC(CN(C)C)C1=O (stereo not given)
EC50: > 200 µM | IC50: 110 µM

Cc1cn(CC2=NCC(C)N2)c(=O)[nH]c1=O (stereo not given)
EC50: > 200 µM | IC50: > 200 µM

C[N+](C)(C)CCCCCc1c2nc(c(CCCCC[N+](C)(C)C)c3ccc([nH]3)c(CCCCC[N+](C)(C)C)c3ccc([nH]3)c(CCCCC[N+](C)(C)C)c3nc1C=C3)C=C2
EC50: > 100 µM | IC50: 57.5 µM

CC1c2c(cc(=O)n(C)c2O)C(=O)N1C (stereo not given)
EC50: 288 µM | IC50: 457 µM

CC1(C)OCC2OC3(c4nc(C#N)c(N)o4)OC(C)(C)OC3C2O1 (stereo not given)
EC50: > 50.1 µM | IC50: > 50.1 µM

Cc1ccc(S(=O)c2ccccc2[N+](=O)[O-])cc1 (stereo not given)
EC50: > 35.5 µM | IC50: 28.2 µM

CCOC(=O)/C=C\n1c(=O)cc(C)c2ccccc21
EC50: > 200 µM | IC50: > 200 µM

Cc1ccc2c(c1N)C(=O)c1ccccc1C2=O
EC50: > 200 µM | IC50: 123 µM

CC(=O)C1C(=O)C(=O)N(c2ccccc2N2C(=O)C(=O)C(C(C)=O)C2=O)C1=O (stereo not given)
outcome: inactive

N#C/C(=C\c1ccccc1)C(=O)c1ccccc1
EC50: > 95.5 µM | IC50: > 95.5 µM

Cc1nnc(N)s/c1=N/O
EC50: > 200 µM | IC50: > 200 µM

CC(=O)/C=C/c1ccco1
EC50: > 26.3 µM | IC50: > 26.3 µM

Cc1cc(C(=C2C=CC(=Nc3ccc(S(=O)(=O)O)cc3)C=C2)c2ccc(Nc3ccc(S(=O)(=O)O)cc3)cc2)cc(S(=O)(=O)O)c1N
EC50: 30.2 µM | IC50: 49 µM

CC1CC(C)(C)N2CCC(C(=O)N3Cc4cc5ccccc5nc4C3)C2O1 (stereo not given)
EC50: > 200 µM | IC50: > 200 µM

Clc1cc(Cl)c(NN=C(c2ccccc2)c2ccccc2)c(Cl)c1
EC50: > 200 µM | IC50: > 200 µM

[NH-]CC[NH-].[NH-]CC[NH-].[NH-]CC[NH-].[Ni+2].[O-][Cl+3]([O-])([O-])O
EC50: > 200 µM | IC50: 77.6 µM

CCCCCCCCCCCCCCCCNCCCS(=O)(=O)O
EC50: > 200 µM | IC50: 3.89 µM

O=C1CNC(=O)c2ncn(C3OC(CO)C(O)C3O)c2N1 (stereo not given)
EC50: > 240 µM | IC50: > 240 µM

Brc1ccc(C2CC3(c4ccccc4)ON=C(c4ccccc4)N3c3ccccc3S2)cc1 (stereo not given)
EC50: > 200 µM | IC50: 174 µM

CC(Oc1ccc2c(-c3ccccc3)cc(=O)oc2c1)C(=O)O (stereo not given)
outcome: inactive

Cc1nc2sccn2c1C(=O)NC(=O)Nc1ccc(Cl)cc1
EC50: > 20.4 µM | IC50: > 20.4 µM

COc1cccc2c1C(=O)c1ccc3cc(CO)cc(O)c3c1C2=O
EC50: > 200 µM | IC50: 1.12 µM

CN(C)CCOc1ccc(-c2c(Oc3ccccc3)c(=O)oc3ccccc23)cc1
EC50: > 200 µM | IC50: 8.71 µM

COc1cc([N+](=O)[O-])c(S(=O)(=O)O)cc1-n1nc(C(=O)Nc2ccccc2)n[n+]1-c1cc(S(=O)(=O)[O-])c([N+](=O)[O-])cc1OC
EC50: > 372 µM | IC50: 288 µM

Cc1cc(O)cc2c1CC=C1C(=C2)C(=O)C(=O)C(C(C)C)=C1O
outcome: inactive

COc1ccc2nc3cc([N+](=O)[O-])ccc3c(NCCCN(CCO)CCO)c2c1
EC50: > 200 µM | IC50: 2.51 µM

O=C(c1ccccc1)c1ccc(C(=O)c2ccccc2)cc1
EC50: > 5.01 µM | IC50: > 5.01 µM

c1ccc(-c2cc(Nc3ccc4c(c3)OCO4)c3cc(C4CCCCC4)ccc3n2)cc1
outcome: inactive

O=C(O)c1ccccc1-n1nc(C(=O)O)c(N=Nc2ccc(/C=C/c3ccc(N=Nc4c(C(=O)O)nn(-c5ccccc5C(=O)O)c4O)cc3S(=O)(=O)O)c(S(=O)(=O)O)c2)c1O.[Cu+2].[Na+]
EC50: > 0.479 µM | IC50: > 0.479 µM

OC1c2ccccc2C(O)C2OC12 (stereo not given)
EC50: > 200 µM | IC50: 115 µM

C[C@@]12c3ccc4c(c3C(=O)c3occ(c31)[C@@H](O)C[C@H]2O)CCC4=O
EC50: > 200 µM | IC50: 17.4 µM

O=C(O)CCc1coc2ccc(O)cc12
outcome: inactive

C/C(CC(O)(C(F)(F)Cl)C(F)(F)Cl)=N\NC(N)=S
EC50: > 200 µM | IC50: 110 µM

CCC(C(=O)c1ccc(OC)c(OC)c1)N(C(=O)C(F)(F)F)C(C)c1ccccc1 (stereo not given)
EC50: > 200 µM | IC50: > 200 µM

O=C(c1ccccc1)c1c(O)c2ccccc2oc1=O
outcome: inactive

COc1ccc(/C=C(\C)C=C(C#N)C#N)cc1
EC50: > 44.7 µM | IC50: 34.7 µM

COC(=O)C(=Cc1cc(OC)c(OC)c(OC)c1-c1cc2c(cc1C1(C)OCCS1)OCO2)C(=O)OC (stereo not given)
EC50: > 18.6 µM | IC50: 15.5 µM

CCCCCCCCCCCCCCCCCC(=O)OC[C@H](COP(=O)(O)OCCNC(=O)CCC(=O)O)OC(=O)CCCCCCCCCCCCCCCCC
EC50: > 50.1 µM | IC50: > 50.1 µM

COc1cc[c]([Sb]([Br])([CH]=C(C)C)([CH]=C(C)C)[CH]=C(C)C)cc1
EC50: > 380 µM | IC50: 3.02 µM

CC(C)N1C(C)[C@@H](c2ccccc2)O[P@@]1(=O)/C=C/C[C@H]1CC(=O)CCN1Cc1ccccc1 (stereo not given in full)
outcome: inactive

Cc1ccc(-n2c(O)c3c(N)n[nH]c3c(C#N)c2=O)cc1
EC50: 155 µM | IC50: > 200 µM

Oc1c(-c2ccccc2)nc2cnccn12
EC50: > 447 µM | IC50: > 447 µM

CC(C)(C)OC(=O)C(C1NC2C(=O)OCC2(CO)S1)N1C(=O)c2ccccc2C1=O (stereo not given)
EC50: > 200 µM | IC50: > 200 µM

COc1cc2c(c(OC)c1OC)C(=O)[C@@H](O)[C@H]2N
EC50: > 200 µM | IC50: > 100 µM

O=S(=O)(c1ccccc1)N1C2CCCC21 (stereo not given)
outcome: inactive

C[N+]12CC3C4CC(C3C1)C2C4 (stereo not given)
EC50: > 912 µM | IC50: > 912 µM

N#C/C(=C\c1cc(O)c(O)c(O)c1)C(=O)NCCCNC(=O)/C(C#N)=C/c1cc(O)c(O)c(O)c1
EC50: > 132 µM | IC50: 21.4 µM

COC(=O)/C(C#N)=C(\N)C(Cl)(Cl)Cl
outcome: inactive

Cc1c2ccccc2nc(CSc2ccccc2N)[n+]1[O-]
EC50: 64.6 µM | IC50: > 200 µM

CC(/C=C/c1ncccc1OCCCCCC(=O)O)=N\NC1=NCCN1
EC50: > 69.2 µM | IC50: > 69.2 µM

CNC(=O)Nn1c(SC)nc2ccccc21
EC50: > 200 µM | IC50: > 200 µM

Cc1ccc(NC(=O)/C(=N/NC(=O)CC#N)C2C(=O)N(c3ccccc3)N=C2N)cc1C (stereo not given)
EC50: > 219 µM | IC50: 37.2 µM

C/C(CC(=O)Nc1cccc([N+](=O)[O-])c1)=N\NC(=O)C[n+]1ccccc1
EC50: > 631 µM | IC50: 240 µM

NNc1nc2ccccc2c(=O)n1NC(=O)C(=O)Nc1cccc(C(F)(F)F)c1
EC50: > 324 µM | IC50: > 324 µM

Nc1ncnc2c1nc1n2C2OC(CO)C(O)C2O1 (stereo not given)
EC50: > 339 µM | IC50: > 339 µM

C=CCC(CCC(C)=O)(C(=O)OCC)C(=O)OCC
EC50: > 200 µM | IC50: > 200 µM

Cc1ccc(C)c(NC(=O)C(=O)CC(=O)C2CCOC2=O)c1 (stereo not given)
outcome: inactive

CCC(C)[C@@H](NCc1ccccc1)[C@H](OCc1ccccc1)[C@@H]1COC(C)(C)O1 (stereo not given in full)
EC50: > 200 µM | IC50: 22.4 µM

COc1cccc(/C=C(\C#N)C(=O)O)c1
EC50: > 1230 µM | IC50: 158 µM

CC/C(CC(=O)CCC(=O)Nc1ccc(C)c(C)c1)=N\NC(=O)C(N)=O
outcome: inactive

C=CCN(Cc1ccncc1)C(=O)C(O)(c1ccccc1)c1ccccc1
EC50: > 200 µM | IC50: 186 µM

From PubChem BioAssay AID179 (DTP/NCI, 2004)
